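Briefly, cells in 96-well plates were exposed to five compound concentrations for 48 h, and endpoints were estimated by linear interpolation. GI50 = concentration required for 50% inhibition of growth. At the TGI there is no net growth.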 Some results are limits rather than exact numbers.

Test systems include BT-549 breast; SF-539 CNS; SK-OV-3 ovarian; MDA-MB-231 breast; KM12 colon; ACHN renal; CAKI-1 renal; SK-MEL-28 melanoma; MDA-MB-435; OVCAR-3 ovarian; K-562 leukemia; UACC-62 melanoma.
What all share (assay): NCI anticancer screen, dose series, 48 h

With `C=C(CN(C)C)C(=O)c1cc(C)ccc1C`, the TGI in the test with BT-549 breast was found to be 32.5 µM; with SF-539 CNS it was 19.2 µM; with SK-OV-3 ovarian, 33 µM; in the test on MDA-MB-231 breast, 36.2 µM; in the test with KM12 colon it was 38.3 µM; in the test with ACHN renal, 11.8 µM. Besides, the TGI with CAKI-1 renal was found to be 11.8 µM; with SK-MEL-28 melanoma, 42.5 µM; in the test with MDA-MB-435, 22.1 µM; with OVCAR-3 ovarian, 18.1 µM; in the test with K-562 leukemia, 8.16 µM; in the test on UACC-62 melanoma, 29.7 µM.
As to `COc1cc(C=Nc2ccc(S(N)(=O)=O)cc2)cc(OC)c1`, the TGI in the test with BT-549 breast, in the test with SF-539 CNS, in the test with SK-OV-3 ovarian, in the test with MDA-MB-231 breast, in the test with KM12 colon and in the test with ACHN renal was more than 50 µM each time. Besides, the TGI with CAKI-1 renal is more than 50 µM; in the test with SK-MEL-28 melanoma, more than 50 µM; in the test with MDA-MB-435, 49.3 µM; with OVCAR-3 ovarian, more than 50 µM; in the test with K-562 leukemia it was more than 50 µM; in the test with UACC-62 melanoma, more than 50 µM.
In the case of `Cn1c(=O)c2nc3nnc(C#N)c(N)n3c2n(C)c1=O`, the TGI with BT-549 breast, with SF-539 CNS, in the test with SK-OV-3 ovarian, in the test on MDA-MB-231 breast, with KM12 colon and in the test with ACHN renal was more than 100 µM each time. Further, the TGI in the test on CAKI-1 renal, in the test on SK-MEL-28 melanoma, with MDA-MB-435, with OVCAR-3 ovarian, in the test on K-562 leukemia and in the test with UACC-62 melanoma was more than 100 µM in each case.
Turning to `COc1cc(/C=C/c2sc3ccccc3[n+]2C)ccc1N(C)C`, the TGI in the test on BT-549 breast worked out at 3.7 µM; in the test on SF-539 CNS it was 31.6 µM; in the test with SK-OV-3 ovarian it was 54.8 µM; with MDA-MB-231 breast, 23.2 µM; with KM12 colon it was 21.7 µM; in the test with ACHN renal, 28.6 µM. The TGI was more than 100 µM in the test on CAKI-1 renal; 25.7 µM in the test on SK-MEL-28 melanoma; 22.5 µM in the test on MDA-MB-435; 13 µM in the test on OVCAR-3 ovarian; 6.16 µM in the test on K-562 leukemia; 22.4 µM in the test with UACC-62 melanoma. For the same compound, the GI50 with MDA-MB-231 breast is 11.2 µM; in the test on KM12 colon, 10.1 µM; with SK-MEL-28 melanoma it was 12.4 µM; in the test on MDA-MB-435, 10.2 µM; with OVCAR-3 ovarian, 3.15 µM; with K-562 leukemia, 1.86 µM. Moreover, the GI50 with UACC-62 melanoma is 10.4 µM.
As to `COCC(=O)OC1CCn2c1nc1c2C(=O)C(C)=C(NC(C)=O)C1=N` (configuration not stated), the TGI came to 3.76 µM in the test on BT-549 breast; 3.87 µM in the test on SF-539 CNS; 37.5 µM with SK-OV-3 ovarian; 8.82 µM in the test with MDA-MB-231 breast; 38.2 µM in the test on KM12 colon; 19.9 µM in the test with ACHN renal. Moreover, the TGI was determined as 23.2 µM with CAKI-1 renal; 10.6 µM in the test with SK-MEL-28 melanoma; 3.59 µM in the test with MDA-MB-435; 5.85 µM in the test with OVCAR-3 ovarian; 4.59 µM in the test on K-562 leukemia; 3.34 µM in the test on UACC-62 melanoma.

(Values after PubChem BioAssay (NCI).)
